In US9850283B2, “Macrocyclic inhibitors of the PD-1/PD-L1 and CD80(B7-1)/PD-L1 protein/protein interactions” (BRISTOL-MYERS SQUIBB COMPANY, priority 2013, dated 2017):
Read-outs that look alike come from different tables or passages of the source. Positions of bridges follow the written chain, without caps; N, C: chain ends. Non-standard residues stand in square brackets, D forms with d. Residues, ends and D or L forms follow the SMILES beside them. Ala(indol-4-yl) = N[C@@H](Cc1cccc2[nH]ccc12)C(=O)O; Phe(F5) = N[C@@H](Cc1c(F)c(F)c(F)c(F)c1F)C(=O)O; Phe(4-Br) = N[C@@H](Cc1ccc(Br)cc1)C(=O)O; Phe(4-F) = N[C@@H](Cc1ccc(F)cc1)C(=O)O; Bta = N[C@@H](Cc1csc2ccccc12)C(=O)O; NMeF = CN[C@@H](Cc1ccccc1)C(=O)O; hPhe = N[C@@H](CCc1ccccc1)C(=O)O; NMeE = CN[C@@H](CCC(=O)O)C(=O)O; NMeNle = CCCC[C@H](NC)C(=O)O; Sar = CNCC(=O)O

Tests used:
[1] = molecular target: T1, LK35.2-hPD-L1 cells / PE-labeled PD-1-Ig (Homo sapiens, UniProt Q9NZQ7); experiment: LK35.2-hPD-L1 cell binding high-content screening assay; assay type: cell-based; conditions: cell line of CBA not given (LK35.2-hPD-L1 or 293T-hPD-L1)
T1 construct: expressed in transfected cells; host or cells: LK35.2 mouse B cell line
How it was run: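 Readout: high-content imaging of PE-PD-1-Ig bound to LK35.2-hPD-L1 cells. Cells plated overnight (RPMI/10% FCS); compound + 1 nM PE-PD-1-Ig, 1 h, 37 °C; 3× dPBS wash before imaging.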

Human PD-L1/PD-1 = molecular target: T2, Human PD-L1/PD-1 (Homo sapiens, UniProt Q9NZQ7); experiment: HTRF PD-1-Ig/PD-L1-His binding assay (human PD-L1)
T2 construct: made in house; host or cells: HEK293T
How it was run: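 Soluble Fc-fused PD-1 and His-tagged PD-L1 (truncated before the transmembrane region) were combined in dPBS with 0.1% (w/v) BSA and 0.05% (v/v) Tween-20. Binding was read by HTRF using europium cryptate anti-Ig antibody (1 nM final) and APC anti-His antibody (20 nM final).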

[2] = cluster symbol, read-out: CBA IC50 cluster
[3] = cluster symbol, read-out: HTRF IC50 cluster

T2 sequence (Q9NZQ7 with tags, fused parts or gaps): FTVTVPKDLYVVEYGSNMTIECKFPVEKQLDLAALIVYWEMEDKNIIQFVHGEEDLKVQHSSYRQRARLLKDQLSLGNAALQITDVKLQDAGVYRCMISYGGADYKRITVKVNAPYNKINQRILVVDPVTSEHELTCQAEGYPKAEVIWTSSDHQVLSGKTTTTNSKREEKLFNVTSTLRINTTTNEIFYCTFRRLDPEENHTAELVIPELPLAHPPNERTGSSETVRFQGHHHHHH
T1 sequence (Q9NZQ7 19-290): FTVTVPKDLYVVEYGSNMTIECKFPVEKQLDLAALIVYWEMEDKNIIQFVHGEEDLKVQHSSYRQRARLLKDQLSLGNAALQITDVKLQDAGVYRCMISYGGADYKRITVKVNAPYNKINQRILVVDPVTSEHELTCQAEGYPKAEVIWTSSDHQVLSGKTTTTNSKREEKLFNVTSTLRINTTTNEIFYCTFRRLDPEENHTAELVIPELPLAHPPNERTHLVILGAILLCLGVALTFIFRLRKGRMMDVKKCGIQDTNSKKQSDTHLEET

With `CCCC[C@H]1C(=O)N(C)CC(=O)N[C@@H](CC(=O)O)C(=O)N[C@@H](C(C)C)C(=O)N(C)[C@@H](Cc2ccccc2)C(=O)N[C@@H](Cc2ccc(O)cc2)C(=O)N2CCC[C@H]2C(=O)N[C@@H](Cc2c[nH]c3ccccc23)C(=O)N[C@@H](Cc2ccc(O)cc2)C(=O)N[C@@H](CC(C)C)C(=O)N[C@H](C(=O)NCC(N)=O)CSCC(=O)N[C@@H](Cc2ccccc2)C(=O)N(C)[C@@H](Cc2ccccc2)C(=O)N1C` [Example 3069] (HELM PEPTIDE1{[O=C(C[*:3])[*:2]].F.[meF].[CCCC[C@@H](C(=O)[*:2])N(C)[*:1]].[Sar].D.V.[meF].Y.P.W.Y.L.C.G.[am]}$PEPTIDE1,PEPTIDE1,1:R3-14:R3$$$V2.0) the IC50 [1, 2] was over 74.3 nM and the IC50 (Human PD-L1/PD-1; [3]) was over 30.5 nM.
In the case of `CCCC[C@H]1C(=O)N2CCC[C@H]2C(=O)N[C@@H](CC(=O)O)C(=O)N[C@@H](C(C)C)C(=O)N(C)[C@@H](Cc2ccccc2)C(=O)N[C@@H](Cc2ccc(O)cc2)C(=O)N2CCC[C@H]2C(=O)N[C@@H](Cc2c[nH]c3ccccc23)C(=O)N[C@@H](Cc2ccc(O)cc2)C(=O)N[C@@H](CC(C)C)C(=O)N[C@H](C(=O)NCC(N)=O)CSCC(=O)N[C@@H](Cc2ccccc2)C(=O)N(C)[C@@H](Cc2ccccc2)C(=O)N1C` [Example 3070] (HELM PEPTIDE1{[O=C(C[*:3])[*:2]].F.[meF].[CCCC[C@@H](C(=O)[*:2])N(C)[*:1]].P.D.V.[meF].Y.P.W.Y.L.C.G.[am]}$PEPTIDE1,PEPTIDE1,1:R3-14:R3$$$V2.0), the IC50 [1, 2] is reported as over 74.3 nM and the IC50 (Human PD-L1/PD-1; [3]) is reported as over 30.5 nM.
`CCCC[C@H]1C(=O)N(C)CC(=O)N[C@@H](CC(=O)O)C(=O)N[C@@H](C(C)C)C(=O)N(C)[C@@H](Cc2ccccc2)C(=O)N[C@@H](Cc2ccc(O)cc2)C(=O)N(C)CC(=O)N[C@@H](Cc2cccc3[nH]ccc23)C(=O)N[C@@H](Cc2ccc(O)cc2)C(=O)N[C@@H](CC(C)C)C(=O)N[C@H](C(=O)NCC(N)=O)CSCC(=O)N[C@@H](Cc2ccccc2)C(=O)N(C)[C@@H](Cc2ccccc2)C(=O)N1C` [Example 3071] ({CH2CO}-F[NMeF][NMeNle][Sar]DV[NMeF]Y[Sar][Ala(indol-4-yl)]YLCG-NH2; thioether N-13) was tested, and the IC50 [1, 2] was 4.78 to 72.9 nM and the IC50 (Human PD-L1/PD-1; [3]) was 6.76 to 30.3 nM.
`CCCC[C@H]1C(=O)N(C)CC(=O)N[C@@H](CC(=O)O)C(=O)N[C@@H](C(C)C)C(=O)N(C)[C@@H](Cc2ccccc2)C(=O)N[C@@H](Cc2ccc(O)cc2)C(=O)N(C)CC(=O)N[C@@H](CCC(=O)O)C(=O)N[C@@H](Cc2ccc(O)cc2)C(=O)N[C@@H](CC(C)C)C(=O)N[C@H](C(=O)NCC(N)=O)CSCC(=O)N[C@@H](Cc2ccccc2)C(=O)N(C)[C@@H](Cc2ccccc2)C(=O)N1C` [Example 3072] (HELM PEPTIDE1{[O=C(C[*:3])[*:2]].F.[meF].[CCCC[C@@H](C(=O)[*:2])N(C)[*:1]].[Sar].D.V.[meF].Y.[Sar].E.Y.L.C.G.[am]}$PEPTIDE1,PEPTIDE1,1:R3-14:R3$$$V2.0) gave an IC50 [1, 2] of over 74.3 nM and an IC50 (Human PD-L1/PD-1; [3]) of over 30.5 nM.
`CCCC[C@H]1C(=O)N(C)CC(=O)N[C@@H](CC(=O)O)C(=O)N[C@@H](C(C)C)C(=O)N(C)[C@@H](Cc2ccccc2)C(=O)N[C@@H](Cc2ccc(O)cc2)C(=O)N(C)[C@@H](CCC(=O)O)C(=O)N[C@@H](Cc2csc3ccccc23)C(=O)N[C@@H](Cc2ccc(O)cc2)C(=O)N[C@@H](CC(C)C)C(=O)N[C@H](C(=O)NCC(N)=O)CSCC(=O)N[C@@H](Cc2ccccc2)C(=O)N(C)[C@@H](Cc2ccccc2)C(=O)N1C` [Example 3073] ({CH2CO}-F[NMeF][NMeNle][Sar]DV[NMeF]Y[NMeE][Bta]YLCG-NH2; thioether N-13) was tested, and the IC50 [1, 2] was 4.78 to 72.9 nM and the IC50 (Human PD-L1/PD-1; [3]) was 0.385 to 6.74 nM.
For `CCCC[C@H]1C(=O)N(C)CC(=O)N[C@@H](CC(=O)O)C(=O)N[C@@H](C(C)C)C(=O)N(C)[C@@H](Cc2ccccc2)C(=O)N[C@@H](Cc2ccc(O)cc2)C(=O)N(C)CC(=O)N[C@@H](Cc2csc3ccccc23)C(=O)N[C@@H](Cc2ccc(O)cc2)C(=O)N[C@@H](CCC(=O)O)C(=O)N[C@H](C(=O)NCC(N)=O)CSCC(=O)N[C@@H](Cc2ccccc2)C(=O)N(C)[C@@H](Cc2ccccc2)C(=O)N1C` [Example 3074] ({CH2CO}-F[NMeF][NMeNle][Sar]DV[NMeF]Y[Sar][Bta]YECG-NH2; thioether N-13), the IC50 [1, 2] was 4.78 to 72.9 nM and the IC50 (Human PD-L1/PD-1; [3]) was 6.76 to 30.3 nM.
`CCCC[C@H]1C(=O)N(C)CC(=O)N[C@@H](CC(=O)O)C(=O)N[C@@H](C(C)C)C(=O)N(C)[C@@H](Cc2ccccc2)C(=O)N[C@@H](CCC(=O)O)C(=O)N(C)[C@@H](CCC(=O)O)C(=O)N[C@@H](Cc2c[nH]c3ccccc23)C(=O)N[C@@H](Cc2ccc(O)cc2)C(=O)N[C@@H](CCC(=O)O)C(=O)N[C@H](C(=O)NCC(N)=O)CSCC(=O)N[C@@H](Cc2ccccc2)C(=O)N(C)[C@@H](Cc2ccccc2)C(=O)N1C` [Example 3075] (HELM PEPTIDE1{[O=C(C[*:3])[*:2]].F.[meF].[CCCC[C@@H](C(=O)[*:2])N(C)[*:1]].[Sar].D.V.[meF].E.[meE].W.Y.E.C.G.[am]}$PEPTIDE1,PEPTIDE1,1:R3-14:R3$$$V2.0) showed an IC50 [1, 2] of over 74.3 nM and an IC50 (Human PD-L1/PD-1; [3]) of over 30.5 nM.
`CCCC[C@H]1C(=O)N(C)CC(=O)N[C@@H](CC(=O)O)C(=O)N[C@@H](C(C)C)C(=O)N(C)[C@@H](Cc2ccccc2)C(=O)N[C@@H](Cc2ccc(O)cc2)C(=O)N(C)CC(=O)N[C@@H](Cc2c[nH]c3ccccc23)C(=O)N[C@@H](Cc2ccc(F)cc2)C(=O)N[C@@H](CC(C)C)C(=O)N[C@H](C(=O)NCC(N)=O)CSCC(=O)N[C@@H](Cc2ccccc2)C(=O)N(C)[C@@H](Cc2ccccc2)C(=O)N1C` [Example 3076] ({CH2CO}-F[NMeF][NMeNle][Sar]DV[NMeF]Y[Sar]W[Phe(4-F)]LCG-NH2; thioether N-13) showed an IC50 [1, 2] of 4.78 to 72.9 nM and an IC50 (Human PD-L1/PD-1; [3]) of 0.385 to 6.74 nM.
In the case of `CCCC[C@H]1C(=O)N(C)CC(=O)N[C@@H](CC(=O)O)C(=O)N[C@@H](C(C)C)C(=O)N(C)[C@@H](Cc2ccccc2)C(=O)N[C@@H](Cc2ccc(F)cc2)C(=O)N(C)CC(=O)N[C@@H](Cc2c[nH]c3ccccc23)C(=O)N[C@@H](Cc2ccc(O)cc2)C(=O)N[C@@H](CC(C)C)C(=O)N[C@H](C(=O)NCC(N)=O)CSCC(=O)N[C@@H](Cc2ccccc2)C(=O)N(C)[C@@H](Cc2ccccc2)C(=O)N1C` [Example 3077] ({CH2CO}-F[NMeF][NMeNle][Sar]DV[NMeF][Phe(4-F)][Sar]WYLCG-NH2; thioether N-13), the IC50 [1, 2] is reported as over 74.3 nM and the IC50 (Human PD-L1/PD-1; [3]) is reported as over 30.5 nM.
`CCCC[C@H]1C(=O)N(C)CC(=O)N[C@@H](CC(=O)O)C(=O)N[C@@H](C(C)C)C(=O)N(C)[C@@H](Cc2ccccc2)C(=O)N[C@@H](Cc2ccc(O)cc2)C(=O)N(C)CC(=O)N[C@@H](Cc2c[nH]c3ccccc23)C(=O)N[C@@H](Cc2ccc(O)cc2)C(=O)N[C@@H](CC(C)C)C(=O)N[C@H](C(=O)NCC(N)=O)CSCC(=O)N[C@@H](Cc2c(F)c(F)c(F)c(F)c2F)C(=O)N(C)[C@@H](Cc2ccccc2)C(=O)N1C` [Example 3078] ({CH2CO}-[Phe(F5)][NMeF][NMeNle][Sar]DV[NMeF]Y[Sar]WYLCG-NH2; thioether N-13) gave an IC50 [1, 2] of over 74.3 nM and an IC50 (Human PD-L1/PD-1; [3]) of over 30.5 nM.
`CCCC[C@H]1C(=O)N(C)CC(=O)N[C@@H](CC(=O)O)C(=O)N[C@@H](C(C)C)C(=O)N(C)[C@@H](Cc2ccccc2)C(=O)N[C@@H](Cc2c(F)c(F)c(F)c(F)c2F)C(=O)N(C)CC(=O)N[C@@H](Cc2c[nH]c3ccccc23)C(=O)N[C@@H](Cc2ccc(O)cc2)C(=O)N[C@@H](CC(C)C)C(=O)N[C@H](C(=O)NCC(N)=O)CSCC(=O)N[C@@H](Cc2ccccc2)C(=O)N(C)[C@@H](Cc2ccccc2)C(=O)N1C` [Example 3079] ({CH2CO}-F[NMeF][NMeNle][Sar]DV[NMeF][Phe(F5)][Sar]WYLCG-NH2; thioether N-13) showed an IC50 [1, 2] of 4.78 to 72.9 nM and an IC50 (Human PD-L1/PD-1; [3]) of over 30.5 nM.
With `CCCC[C@H]1C(=O)N(C)CC(=O)N[C@@H](CC(=O)O)C(=O)N[C@@H](C(C)C)C(=O)N(C)[C@@H](Cc2ccccc2)C(=O)N[C@@H](Cc2ccc(O)cc2)C(=O)N(C)CC(=O)N[C@@H](Cc2c[nH]c3ccccc23)C(=O)N[C@@H](Cc2c(F)c(F)c(F)c(F)c2F)C(=O)N[C@@H](CC(C)C)C(=O)N[C@H](C(=O)NCC(N)=O)CSCC(=O)N[C@@H](Cc2ccccc2)C(=O)N(C)[C@@H](Cc2ccccc2)C(=O)N1C` [Example 3080] ({CH2CO}-F[NMeF][NMeNle][Sar]DV[NMeF]Y[Sar]W[Phe(F5)]LCG-NH2; thioether N-13) the IC50 ([1]; read-out: CBA IC50 value) was over 10000 nM and the IC50 (Human PD-L1/PD-1; read-out: HTRF IC50 value) was over 10000 nM.
Compound `CCCC[C@H]1C(=O)N(C)CC(=O)N[C@@H](CC(=O)O)C(=O)N[C@@H](C(C)C)C(=O)N(C)[C@@H](Cc2ccccc2)C(=O)N[C@@H](Cc2ccc(O)cc2)C(=O)N(C)CC(=O)N[C@@H](Cc2c[nH]c3ccccc23)C(=O)N[C@@H](Cc2ccc(O)cc2)C(=O)N[C@@H](CC(C)C)C(=O)N[C@H](C(=O)NCC(N)=O)CSCC(=O)N[C@@H](Cc2ccc(Br)cc2)C(=O)N(C)[C@@H](Cc2ccccc2)C(=O)N1C` [Example 3081] ({CH2CO}-[Phe(4-Br)][NMeF][NMeNle][Sar]DV[NMeF]Y[Sar]WYLCG-NH2; thioether N-13) has an IC50 [1, 2] of 4.78 to 72.9 nM and an IC50 (Human PD-L1/PD-1; [3]) of over 30.5 nM.
Compound `CCCC[C@H]1C(=O)N(C)CC(=O)N[C@@H](CC(=O)O)C(=O)N[C@@H](C(C)C)C(=O)N(C)[C@@H](Cc2ccccc2)C(=O)N[C@@H](Cc2ccc(O)cc2)C(=O)N(C)CC(=O)N[C@@H](Cc2c[nH]c3ccccc23)C(=O)N[C@@H](Cc2ccc(O)cc2)C(=O)N[C@@H](CC(C)C)C(=O)N[C@H](C(=O)NCC(N)=O)CSCC(=O)N[C@@H](CCc2ccccc2)C(=O)N(C)[C@@H](Cc2ccccc2)C(=O)N1C` [Example 3082] ({CH2CO}-[hPhe][NMeF][NMeNle][Sar]DV[NMeF]Y[Sar]WYLCG-NH2; thioether N-13) has an IC50 [1, 2] of over 74.3 nM and an IC50 (Human PD-L1/PD-1; [3]) of over 30.5 nM.
